Like-named read-outs stand apart in the source and are kept apart here.
What was measured:
Type in all cases: cell-based
[1] = test system: Staphylococcus aureus (PEG 10-38-22); test: EN-ISO standard test (ISO 20776-1), MIC
Protocol: (§1) Furthermore, compounds were tested against the following bacteria
(§2) according to EN-ISO standard (ISO 20776-1: 2006. Clinical laboratory testing and in vitro diagnostic test systems—Susceptibility testing of infectious agents and evaluation of performance of antimicrobial susceptibility test devices—Part 1:Reference method for testing the in vitro activity of antimicrobial agents against rapidly growing aerobic bacteria involved in infectious diseases; German version EN ISO 20776-1:2006. Beuth-Verlag, Berlin).

[2] = test system: Escherichia coli (ATCC 25922, 100-2-49 and 100-2-56); test: EN-ISO standard test (ISO 20776-1), MIC
Protocol: as §1, §2

[3] = test system: Staphylococcus aureus (ATCC 29213); test: EN-ISO standard test (ISO 20776-1), MIC
Protocol: as §1, §2

[4] = test system: Staphylococcus aureus DSM 2569; test: Test agar plates (disc diffusion), diameter of inhibition area; settings: DSM2569, 18 h, read-out: diameter of inhibition, Staphylococcus aureus DSM 2569
Protocol: (§3) The dry compounds were dissolved in DMSO (1 mg/ml) and the so obtained stock solution was diluted with sterilized Millipore water 1:10 and 1:100
(§4) 20 μl of cryo stock of each strain were inoculated to 20 ml of Mueller-Hinton medium and grown overnight at 30° C. or 37° C. on a vertical shaker with 160 rpm. The inoculum for the test was adjusted by the 0.5 McFarland Standard (OD625 from 0.08 to 0.1)
Staphylococcus aureus DSM 2569 [gram. Pos.] Medium: MHB/37° C.
(§5) Every plate is prepared by pouring 10 ml Mueller-Hinton agar into standard petri dishes (diam 94 mm). The so obtained Mueller-Hinton plates are overlayed with 4 ml Mueller-Hinton soft agar containing 100 μl suspension of the test strain.
(§6) After the soft agar turned solid, sterile susceptibility test discs were circular placed on the agar and on every test disc 10 μl compound was added. Each concentration is tested in triplicate. The agar dishes were incubated for 18 hours at a temperature of 30° C. or 37° C. Results are obtained by measuring the diameter of inhibition area around each test disc.

[5] = test system: Escherichia coli albi-res (Montpellier); test: as above; settings: 18 h, read-out: diameter of inhibition, Escherichia coli albi-res (Montpellier)
Protocol: as §3, §4
Escherichia coli albi-res (Montpellier) [gram. Neg.] Medium: MHB/37° C.
as §5, §6

[6] = test system: Micrococcus luteus DSM1790; test: as above; settings: Micrococcus luteus, DSM1790, 18 h, read-out: diameter of inhibition, Micrococcus luteus DSM1790
Protocol: as §3, §4
Micrococcus luteus DSM1790 [gram. Pos.] Medium: MHB/37° C.
as §5, §6

[7] = test system: Pseudomonas aeruginosa DSM1117; test: as above; settings: DSM1117, 18 h, read-out: diameter of inhibition, Pseudomonas aeruginosa DSM1117
Protocol: as §3, §4
Pseudomonas aeruginosa DSM1117 [gram. Neg.] Medium: MHB/37° C.
as §5, §6

[8] = test system: Salmonella enteritidis (PEG-10-3-58); test: EN-ISO standard test (ISO 20776-1), MIC
Protocol: as §1
Salmonella enteritidis (PEG-10-3-58),
as §2

Escherichia coli DH5α = test: Test agar plates (disc diffusion), diameter of inhibition area; settings: 18 h, read-out: diameter of inhibition, Escherichia coli DH5α
Protocol: as §3, §4
Escherichia coli DH5α [gram. Neg.] Medium: MHB/37° C.
as §5, §6

Bacillus subtilis DSM10 = test: as above; settings: Bacillus subtilis, DSM10, 18 h, read-out: diameter of inhibition, Bacillus subtilis DSM10
Protocol: as §3, §4
Bacillus subtilis DSM10 [gram. Pos.] Medium: MHB/30° C.
as §5, §6

[9] = test system: Pseudomonas aeruginosa (PEG-10-2-61); test: EN-ISO standard test (ISO 20776-1), MIC
Protocol: as §1
(§7) Pseudomonas aeruginosa (ATCC 27853 and PEG-10-2-61)
as §2

[10] = test system: Pseudomonas aeruginosa (ATCC 27853); test: EN-ISO standard test (ISO 20776-1), MIC
Protocol: as §1, §7, §2

[11] = test agar plates, active substance 1 mg/ml, "more than 1 cm and more than 2 cm" [sic]
[12] = test agar plates, active substance 1 mg/ml, more than 1 cm or more than 2 cm
[13] = test agar plates, active substance 1 mg/ml, more than 1 cm or more than 3.9 cm [sic]

Compound	MIC values, in words [1]	MIC values (minimal inhibitory concentration), in words [2]	MIC values, in words [3]	zone of inhibition at 1000 µg/mL [4, 11]	zone of inhibition at 1000 µg/mL [5, 12]	zone of inhibition at 1000 µg/mL [6, 11]	zone of inhibition at 1000 µg/mL [7, 12]	MIC values, in words [8]	zone of inhibition at 1000 µg/mL (Escherichia coli DH5α; [12])	zone of inhibition at 1000 µg/mL (Bacillus subtilis DSM10; [13])	MIC values, in words [9]	MIC values, in words [10]	zone of inhibition at 1000 µg/mL [4]	zone of inhibition at 1000 µg/mL [5]	zone of inhibition at 1000 µg/mL [6]	zone of inhibition at 1000 µg/mL [7]	zone of inhibition at 1000 µg/mL (Escherichia coli DH5α)	zone of inhibition at 1000 µg/mL (Bacillus subtilis DSM10)
COc1c(NC(=O)c2ccc(NC(=O)c3ccc(NC(=O)C(CC#N)NC(=O)c4ccc(NC(=O)/C(C)=C/c5ccc(F)cc5)cc4)cc3)c(OC)c2O)ccc(C(=O)O)c1O (stereo not shown) [Compound 1]	good to very good	good to very good	good to very good	> 10 mm	> 10 mm	> 10 mm	> 10 mm	good to very good	> 10 mm	> 10 mm	good to very good	good to very good						
COc1c(NC(=O)c2ccc(NC(=O)c3ccc(NC(=O)C(CC#N)NC(=O)c4ccc(NC(=O)/C(C)=C/c5ccccc5)cc4)cc3)c(OC)c2O)ccc(C(=O)O)c1O (stereo not shown) [Compound 2]				> 10 mm	> 10 mm	> 10 mm	> 10 mm		> 10 mm	> 10 mm								
COc1c(NC(=O)c2ccc(NC(=O)c3ccc(NC(=O)C(CC#N)NC(=O)c4ccc(NC(=O)/C=C/c5ccccc5)cc4)cc3)c(OC)c2O)ccc(C(=O)O)c1O (stereo not shown) [Compound 3]				> 10 mm	> 10 mm	> 10 mm	> 10 mm		> 10 mm	> 10 mm								
COc1c(NC(=O)c2ccc(NC(=O)c3ccc(NC(=O)C(CC#N)NC(=O)c4ccc(NC(=O)/C(C)=C/c5ccc(C(F)(F)F)cc5)cc4)cc3)c(OC)c2O)ccc(C(=O)O)c1O (stereo not shown) [Compound 4]				> 10 mm	> 10 mm	> 10 mm	> 10 mm		> 10 mm	> 10 mm								
COc1c(NC(=O)c2ccc(NC(=O)c3ccc(NC(=O)C(CC#N)NC(=O)c4ccc(NC(=O)/C=C/c5ccc6c(c5)OCO6)cc4)cc3)c(OC)c2O)ccc(C(=O)O)c1O (stereo not shown) [Compound 5]	good to very good	good to very good	good to very good	> 10 mm	> 10 mm	> 10 mm	> 10 mm	good to very good	> 10 mm	> 10 mm	good to very good	good to very good						
COc1c(NC(=O)c2ccc(NC(=O)c3ccc(NC(=O)C(CC#N)NC(=O)c4ccc(NC(=O)c5ccc(-c6ccccc6)cc5)cc4)cc3)c(OC)c2O)ccc(C(=O)O)c1O (stereo not shown) [Compound 9]				> 10 mm	> 10 mm	> 10 mm			> 10 mm	> 10 mm								
COc1ccc(C(=O)Nc2ccc(C(=O)NC(CC#N)C(=O)Nc3ccc(C(=O)Nc4ccc(C(=O)Nc5ccc(C(=O)O)c(O)c5OC)c(O)c4OC)cc3)cc2)cc1 (stereo not shown) [Compound 10]				> 10 mm	> 10 mm	> 10 mm	> 10 mm		> 10 mm	> 10 mm								
COc1c(NC(=O)c2ccc(NC(=O)c3ccc(NC(=O)C(CC#N)NC(=O)c4ccc(NC(=O)c5ccc(C#N)cc5)cc4)cc3)c(OC)c2O)ccc(C(=O)O)c1O (stereo not shown) [Compound 11]				> 10 mm	> 10 mm	> 10 mm	> 10 mm		> 10 mm	> 10 mm								
COc1c(NC(=O)c2ccc(NC(=O)c3ccc(NC(=O)C(CC#N)NC(=O)c4ccc(NC(=O)c5cccc(C(F)(F)F)c5)cc4)cc3)c(OC)c2O)ccc(C(=O)O)c1O (stereo not shown) [Compound 12]				> 10 mm	> 10 mm	> 10 mm	> 10 mm		> 10 mm	> 10 mm								
COc1c(NC(=O)c2ccc(NC(=O)c3ccc(NC(=O)C(CC#N)NC(=O)c4ccc(NC(=O)c5cscn5)cc4)cc3)c(OC)c2O)ccc(C(=O)O)c1O (stereo not shown) [Compound 16]		good to very good		> 10 mm	> 10 mm	> 10 mm		good to very good	> 10 mm	> 10 mm								
COc1c(NC(=O)c2ccc(NC(=O)c3ccc(NC(=O)C(CC#N)NC(=O)c4ccc(NC(=O)COc5ccccc5)cc4)cc3)c(OC)c2O)ccc(C(=O)O)c1O (stereo not shown) [Compound 30]		good to very good	good to very good					good to very good				good to very good	> 10 mm	> 10 mm	> 10 mm	> 10 mm	> 10 mm	> 10 mm
COc1c(NC(=O)c2ccc(NC(=O)c3ccc(NC(=O)C(CC#N)NC(=O)c4ccc(NC(=O)C5CCCCC5)cc4)cc3)c(OC)c2O)ccc(C(=O)O)c1O (stereo not shown) [Compound 35]		good to very good		> 10 mm			> 10 mm	good to very good	> 10 mm	> 10 mm		good to very good		> 10 mm				
COc1c(NC(=O)c2ccc(NC(=O)c3ccc(NC(=O)C(CC#N)NC(=O)c4ccc(NC(=O)Nc5ccccc5)cc4)cc3)c(OC)c2O)ccc(C(=O)O)c1O (stereo not shown) [Compound 43]		good to very good					> 10 mm	good to very good		> 10 mm				> 10 mm				
COc1c(NC(=O)c2ccc(NC(=O)c3ccc(NC(=O)C(CC#N)NC(=O)c4ccc(NCc5ccc(-c6ccccc6)cc5)cc4)cc3)c(OC)c2O)ccc(C(=O)O)c1O (stereo not shown) [Compound 44]														> 10 mm	> 10 mm	> 10 mm	> 10 mm	> 10 mm

Source: US10308595B2, “Albicidin derivatives, their use and synthesis” (priority 2013, dated 2019)
